The values below come from ChEMBL document CHEMBL5046218, “Novel Dual-Target μ-Opioid Receptor and Dopamine D3 Receptor Ligands as Potential Nonaddictive Pharmacotherapeutics for Pain Management” (J Med Chem, 2021).

Holding throughout (parameters): species or system Membrane
One assay deals with T1, D(4) dopamine receptor (Homo sapiens, UniProt P21917).
T1 sequence (P21917 whole entry): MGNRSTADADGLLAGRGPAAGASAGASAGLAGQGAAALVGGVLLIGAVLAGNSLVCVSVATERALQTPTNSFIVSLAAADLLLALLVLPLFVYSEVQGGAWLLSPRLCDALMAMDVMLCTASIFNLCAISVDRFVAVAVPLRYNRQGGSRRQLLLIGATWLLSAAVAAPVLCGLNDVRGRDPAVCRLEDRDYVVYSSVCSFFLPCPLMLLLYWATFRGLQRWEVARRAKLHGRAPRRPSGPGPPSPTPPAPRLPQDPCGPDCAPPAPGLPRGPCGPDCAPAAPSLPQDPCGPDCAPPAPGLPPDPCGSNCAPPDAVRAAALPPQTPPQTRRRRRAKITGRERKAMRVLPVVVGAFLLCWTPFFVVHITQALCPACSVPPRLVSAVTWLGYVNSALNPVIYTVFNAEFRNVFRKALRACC
Briefly: Displacement of [3H]-N-methylspiperone from human dopamine D4 receptor expressed in HEK293 cell membranes incubated for 60 mins by microbeta scintillation counting analysis. (Loss of bound radioactivity is the signal in a displacement assay; it reports binding, not function.)

The target in assay [1] is T2, D(2) dopamine receptor (Homo sapiens, UniProt P14416). The assay is described as follows: Displacement of [3H]-N-methylspiperone from human dopamine D2 receptor expressed in HEK293 cell membranes incubated for 60 mins by microbeta scintillation counting analysis.
T2 sequence (P14416 whole entry): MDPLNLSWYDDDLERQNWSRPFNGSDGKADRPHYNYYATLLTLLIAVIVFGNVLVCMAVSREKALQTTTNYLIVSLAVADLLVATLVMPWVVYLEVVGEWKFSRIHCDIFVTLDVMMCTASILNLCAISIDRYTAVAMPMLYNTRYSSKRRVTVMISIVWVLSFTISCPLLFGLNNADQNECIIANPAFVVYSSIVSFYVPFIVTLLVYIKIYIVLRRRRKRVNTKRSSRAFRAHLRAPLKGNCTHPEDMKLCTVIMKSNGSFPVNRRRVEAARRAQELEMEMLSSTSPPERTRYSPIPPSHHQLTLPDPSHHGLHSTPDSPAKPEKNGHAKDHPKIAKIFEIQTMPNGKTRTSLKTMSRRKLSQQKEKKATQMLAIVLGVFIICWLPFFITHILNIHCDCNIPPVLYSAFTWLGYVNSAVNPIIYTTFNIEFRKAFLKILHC
Assay [2] deals with T3, D(3) dopamine receptor (Homo sapiens, UniProt P35462). Briefly: Displacement of [3H]-N-methylspiperone from human dopamine D3 receptor expressed in HEK293 cell membranes incubated for 60 mins by microbeta scintillation counting analysis.
T3 sequence (P35462 whole entry): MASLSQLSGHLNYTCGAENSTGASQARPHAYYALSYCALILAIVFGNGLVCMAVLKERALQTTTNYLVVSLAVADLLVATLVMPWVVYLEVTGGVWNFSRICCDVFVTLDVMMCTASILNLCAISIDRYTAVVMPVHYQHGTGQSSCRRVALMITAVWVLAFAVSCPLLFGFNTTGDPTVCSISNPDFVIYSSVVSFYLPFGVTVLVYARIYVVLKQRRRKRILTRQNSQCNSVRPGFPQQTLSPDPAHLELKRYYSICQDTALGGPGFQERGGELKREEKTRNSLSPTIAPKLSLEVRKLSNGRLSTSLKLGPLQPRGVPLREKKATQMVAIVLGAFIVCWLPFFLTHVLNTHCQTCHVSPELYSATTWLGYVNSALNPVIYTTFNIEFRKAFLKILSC
The target in assay [3] is T2, D(2) dopamine receptor. Briefly: Displacement of [3H]-(R)-(+)7-OH-DPAT from human dopamine D2 receptor expressed in HEK293 cell membranes incubated for 90 mins by microbeta scintillation counting analysis.
Assay [4] concerns the target T3, D(3) dopamine receptor. Briefly: Displacement of [3H]-(R)-(+)7-OH-DPAT from human dopamine D3 receptor expressed in HEK293 cell membranes incubated for 90 mins by microbeta scintillation counting analysis.

Regarding `CCc1cc(Cl)c(OC)c(C(=O)NC[C@@H]2CCCN2CCCCNCCC(C(=O)N(C)C)(c2ccccc2)c2ccccc2)c1O`, the Ki (commonly a measure of affinity in units of concentration, obtained from inhibition or displacement) on D(4) dopamine receptor was found to be 6.61 µM; at D(2) dopamine receptor [1] it was 1.73 µM.
`CN(C)C(=O)C(CCNCCCCN1CCN(c2cccc(Cl)c2Cl)CC1)(c1ccccc1)c1ccccc1` displayed a Ki on D(4) dopamine receptor of 0.378 µM.
With `CN(C)CCC(C(=O)N(C)C)(c1ccccc1)c1ccccc1`, the Ki is 20.2 µM on D(4) dopamine receptor, 36.9 µM on D(3) dopamine receptor [2] and greater than 100 µM at D(2) dopamine receptor [1].
With `Oc1cccc(C(CCNCCCCN2CCN(c3ccccc3)CC2)c2cccc(O)c2)c1`, the Ki at D(4) dopamine receptor was 0.422 µM; at D(3) dopamine receptor [2] it was 0.249 µM; on D(2) dopamine receptor [1], 0.987 µM.
On the same counts, the results for `CN(C)C(=O)C(CCN1CCc2ccc(C#N)cc2C1)(c1ccccc1)c1ccccc1` are 18 µM, 1.63 µM and 2.27 µM.
On to `Oc1cccc([C@@]23CCC[C@@H]([C@H]2O)N(C/C=C/c2ccccc2)CC3)c1`, for which the Ki on D(2) dopamine receptor [3] stood at 2.79 µM; at D(4) dopamine receptor it was 36.9 µM; at D(3) dopamine receptor [2], 15.7 µM; on D(3) dopamine receptor [4], 20 µM; on D(2) dopamine receptor [1], 7.38 µM.
For `Oc1cccc([C@]23CCC[C@H](NCC2)[C@H]3O)c1` the same measures were greater than 100 µM, greater than 100 µM, greater than 100 µM, greater than 100 µM and greater than 100 µM.
Turning to `CCc1cc(Cl)c(OC)c(C(=O)NCC2CCCN2CC(=O)N2CCC(c3ccccc3)(c3ccccc3)C2)c1O` (stereo unspecified), the Ki at D(4) dopamine receptor amounted to 31 µM; on D(3) dopamine receptor [2] it was 0.288 µM; on D(2) dopamine receptor [1] it was 2.38 µM.
With `CCc1cccc(N2CCN(CCCCNCCC(C(=O)N(C)C)(c3ccccc3)c3ccccc3)CC2)c1Cl`, the Ki came to 0.0442 µM at D(2) dopamine receptor [3]; 0.503 µM on D(4) dopamine receptor; 0.0178 µM at D(3) dopamine receptor [2]; 0.0383 µM at D(3) dopamine receptor [4]; 0.0621 µM at D(2) dopamine receptor [1].
`CCOC(=O)/C=C1\[C@@H]2CCC[C@@]1(c1cccc(O)c1)CCN2CC1CC1CCNC(=O)c1cc2ccccc2[nH]1` (stereo partly specified): the Ki came to 23.4 µM at D(4) dopamine receptor, 4.35 µM on D(3) dopamine receptor [2] and 3.89 µM at D(2) dopamine receptor [1].
On the same counts, the results for `CCc1cccc(N2CCN(CCC(c3cccc(O)c3)c3cccc(O)c3)CC2)c1Cl` are 0.0192 µM, 0.2 µM and 0.187 µM.
On to `CCc1cc(Cl)c(OC)c(C(=O)NC[C@@H]2CCCN2CCC(C#N)(c2ccccc2)c2ccccc2)c1O`, for which the Ki was greater than 100 µM on D(4) dopamine receptor, 1.55 µM at D(3) dopamine receptor [2] and 12.4 µM at D(2) dopamine receptor [1].
Take `CCc1cccc(N2CCN(CCC(c3cccc(O)c3)c3cccc(OC)c3)CC2)c1Cl` (stereo unspecified): the Ki at D(4) dopamine receptor was 0.0385 µM; on D(2) dopamine receptor [1], 0.19 µM.
For `O=C(NCCCCN1CC[C@]2(c3cccc(O)c3)CCC[C@H]1[C@H]2O)c1cc2ccccc2[nH]1` the same measures were 3.81 µM and 1.31 µM.
`CN(C)CCC(C#N)(c1ccccc1)c1ccccc1`: the Ki on D(4) dopamine receptor amounted to 23.2 µM; on D(3) dopamine receptor [2], 16.1 µM; on D(2) dopamine receptor [1] it was 17.9 µM.
On the same counts, the results for `CN(C)C(=O)C(CCNCCc1ccccc1)(c1ccccc1)c1ccccc1` are 12.6 µM, 2.08 µM and 3.65 µM.
On the same counts, the results for `COc1cccc(C(=CCNCCCCN2CCN(c3cccc(Cl)c3Cl)CC2)c2cccc(OC)c2)c1` are 26.1 µM, 0.342 µM and 5.24 µM.
For `O=C(NCCCCN1CC[C@]2(c3cccc(O)c3)CCC[C@H]1[C@@H]2O)c1cc2ccccc2[nH]1` the same measures were 5.63 µM, 5.63 µM and 4.53 µM.
Regarding `N#CC(CCNCCCCN1CCN(c2cccc(Cl)c2Cl)CC1)(c1ccccc1)c1ccccc1`, the Ki on D(2) dopamine receptor [3] is 0.0363 µM; on D(4) dopamine receptor, 0.0259 µM; on D(2) dopamine receptor [1], 0.149 µM.
For `N#CC(CCN1CCN(c2cccc(Cl)c2Cl)CC1)(c1ccccc1)c1ccccc1`, the Ki at D(4) dopamine receptor was found to be 8.49 µM; on D(3) dopamine receptor [2], 2.24 µM; at D(2) dopamine receptor [1], 2.63 µM.
Turning to `CCOC(=O)/C=C1\[C@@H]2CCC[C@@]1(c1cccc(O)c1)CCN2CCN1CCN(c2cccc(Cl)c2Cl)CC1`, the Ki on D(4) dopamine receptor turned out to be 1.6 µM; at D(2) dopamine receptor [1] it was 0.0516 µM.
Turning to `N#CC(CCNCCCCC(=O)N1CCN(c2cccc(Cl)c2Cl)CC1)(c1ccccc1)c1ccccc1`, the Ki on D(4) dopamine receptor turned out to be 3.93 µM; on D(3) dopamine receptor [2], 1.36 µM; at D(2) dopamine receptor [1] it was 1.94 µM.
For `CCc1cc(Cl)c(OC)c(C(=O)NC[C@@H]2C[C@@H](OCCCCNCCC(C(=O)N(C)C)(c3ccccc3)c3ccccc3)CN2)c1O` the same measures were 0.674 µM, 0.00221 µM and 0.00941 µM.
With `CN(C)C(=O)C(CCNCCCCN1CCc2ccc(C#N)cc2C1)(c1ccccc1)c1ccccc1`, the Ki at D(4) dopamine receptor was found to be 58.9 µM; on D(3) dopamine receptor [2], 1.06 µM; at D(2) dopamine receptor [1] it was 1.24 µM.
As for `CCOC(=O)/C=C1\[C@@H]2CCC[C@@]1(c1cccc(O)c1)CCN2CCc1ccccc1`, the Ki on D(2) dopamine receptor [3] is 0.186 µM; on D(4) dopamine receptor it was 5.47 µM; at D(2) dopamine receptor [1], 0.636 µM.
On the same counts, the results for `CN(C)C(=O)C(CCN1CCN(c2cccc(Cl)c2Cl)CC1)(c1ccccc1)c1ccccc1` are 0.0313 µM, 0.102 µM and 0.0747 µM.
As to `N#CC(CCNCCc1ccccc1)(c1ccccc1)c1ccccc1`, the Ki on D(4) dopamine receptor came out at 13.9 µM; at D(3) dopamine receptor [2] it was 8.96 µM; on D(2) dopamine receptor [1], 17.6 µM.
On the same counts, the results for `CCC(=O)C(CCN(C)C)(c1ccccc1)c1ccccc1` [NORMETHADONE] are greater than 100 µM, 4.27 µM and 34.9 µM.
For `N#CC(CCNCCC(O)CN1CCN(c2cccc(Cl)c2Cl)CC1)(c1ccccc1)c1ccccc1` (stereo unspecified) the same measures were 0.426 µM, 0.46 µM and 0.903 µM.
For `CCOC(=O)/C=C1\[C@@H]2CCC[C@@]1(c1cccc(O)c1)CCN2` the same measures were greater than 100 µM, greater than 100 µM and greater than 100 µM.
For `CCc1cc(Cl)c(OC)c(C(=O)NCC2CCCN2CCCCNCCC(C(=O)N(C)C)(c2ccccc2)c2ccccc2)c1O` (stereo unspecified), the Ki on D(2) dopamine receptor [3] turned out to be 0.0937 µM; at D(4) dopamine receptor, 3.42 µM; at D(2) dopamine receptor [1] it was 0.502 µM.
Take `CCC(=O)C(CC(C)N(C)C)(c1ccccc1)c1ccccc1` (stereo unspecified) [METHADONE]: the figures for the Ki on D(4) dopamine receptor, at D(3) dopamine receptor [2] and at D(2) dopamine receptor [1] were 26.2 µM, 2.11 µM and greater than 100 µM, respectively.
On the same counts, the results for `CN(C)C(=O)C(CCN1CCC(O)(c2ccc(Cl)cc2)CC1)(c1ccccc1)c1ccccc1` [LOPERAMIDE] are 1.85 µM, […] and 5.79 µM.
On the same counts, the results for `CN1CCC(c2ccccc2)(c2ccccc2)C1` are 35.4 µM, greater than 100 µM and greater than 100 µM.
Turning to `CCc1cccc(N2CCN(CCC(c3cccc(OC)c3)c3cccc(OC)c3)CC2)c1Cl`, the Ki on D(4) dopamine receptor was found to be 0.0634 µM; on D(3) dopamine receptor [2], 0.0938 µM; at D(2) dopamine receptor [1], 0.17 µM.
For `CCC(=O)N1CCC(c2ccccc2)(c2ccccc2)C1` the same measures were greater than 100 µM, greater than 100 µM and greater than 100 µM.
On the same counts, the results for `CN(C)CCC(C(=O)NCCCCN1CCN(c2cccc(Cl)c2Cl)CC1)(c1ccccc1)c1ccccc1` are 0.466 µM, 0.0118 µM and 0.0427 µM.
